Biological target: T1, bTG (Bacillus subtilis transglutaminase) (Bacillus subtilis, UniProt P40746)
T1 construct: gene tgl; recombinant, expressed in E. coli in active form and purified; about 28 kDa; construct details only in S1 File
T1 sequence (P40746 1-245): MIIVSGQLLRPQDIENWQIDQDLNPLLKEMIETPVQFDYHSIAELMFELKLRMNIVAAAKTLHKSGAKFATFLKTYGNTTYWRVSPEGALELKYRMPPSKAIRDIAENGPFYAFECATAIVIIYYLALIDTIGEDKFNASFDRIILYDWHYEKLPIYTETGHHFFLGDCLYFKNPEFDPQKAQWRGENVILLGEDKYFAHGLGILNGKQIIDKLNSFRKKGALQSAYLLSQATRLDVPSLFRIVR
Assay: GDH-coupled assay; fluorescent labelling on SDS-PAGE
Type: biochemical
Settings: acyl acceptor at 5 mM; 0.8 μM Q-tagged mRuby2 as acyl donor; 0.1 U bTG; 20 min; gel labelling 3 h at 37 °C; initial rates only

## CN(C)c1cccc2c(S(=O)(=O)NCCCCCN)cccc12 [dansyl-cadaverine]
  GDH-coupled assay; fluorescent labelling on SDS-PAGE: initial rates of transamidation between Q-tagged mRuby2 and dansyl-cadaverine were measured using the GDH-coupled assay

Reference: article PMC5976192, “Design of a glutamine substrate tag enabling protein labelling mediated by Bacillus subtilis transglutaminase” (PLoS ONE, 2018)
